{"source": "patent US20230355674A1", "about": "“DONOR T-CELLS WITH KILL SWITCH” (CSL Behring LLC, priority 2020, published 2023)", "key": {"[1]": {"system": "HPRT protein", "assay": "Western blot of HPRT protein in gRNA modified CEM cells", "type": "cell-based, human", "protocol": "(§1) CEM T cell leukemia cells were electroporated (1600V, 10 ms pulse width, 3 pulses by using the Neon Transfection system) with ribonucleoprotein (RNP) complexes containing guide RNA (see Example 21) designed in-house and obtained from Integrated DNA Technologies (IDT), together with Cas9 and tracrRNA. Cells confirmed to be transfected with the gRNA via the use of the tracr RNA (24 hours post electroporation) were purified using fluorescence activated cells sorting (FACS) prior to culture for a further 72 hours, followed by assessment of cell survival when challenged with increasing concentrations of 6-thioguanine (6-TG) compared to wild type (unmodified) CEM cells.\nUnmodified and modified CEM cells were also used for isolation of protein and detection of the HPRT protein using Western blot (FIG. 39, top panel). […] Actin protein detection (FIG. 39, bottom panel) was used as a protein loading control.\nas §1, with “(gRNA; legend)” for “(see Example 21)”, “10 days in the presence” for “a further 72 hours, followed by assessment”, “10 uM 6-TG, replenished” for “cell survival when challenged”, “fresh 6-TG every 48-72 hours.” for “increasing concentrations of 6-thioguanine (6-TG) compared to wild type (unmodified) CEM cells.”\nFollowing the selection period, protein was extracted from each cell and used for western blot-based detection of the HPRT protein. Detection of beta-actin was used as a protein loading control (Actin Antibody (ACTBD11B7): sc-81178. Santa Cruz)."}, "[2]": {"system": "HPRT1 gene", "assay": "ICE scoring (indel, knockout score) of gRNA editing in CEM cells", "type": "cell-based, human", "description": "The top candidate guide RNAs from Example 21 were screen in Jurkat cell lines (n=1) and validated in CEM cell lines (n=2). For instance, Jurkat cells were electroporated with a ribonucleoprotein (RNP) complex containing guide RNA (e.g. an RNP including a guide RNA having any one of SEQ ID NOS: 40-49) together with the Cas9 and tracrRNA. The methodology and analysis was the same for both Jurkat cell lines and CEM cell lines (see also, FIG. 37). Following electroporation, cell viability was measured at different concentrations of 6-TG (see FIG. 36).\n(§2) Indel Percentage—The editing efficiency (percentage of the pool with non-wild type sequence) as determined by comparing the edited trace to the control trace. In the ICE algorithm, potential editing outcomes are proposed and fitted to the observed data using linear regression.\n(§3) Knockout Score—Represents the proportion of cells that have either a frameshift or 21+bp indel. This score is a useful measure for those who are interested in understanding how many of the contributing indels are likely to result in a functional Knockout (KO) of the targeted gene.\nas §1"}, "[3]": {"system": "CEM T cell leukemia cells", "assay": "6-TG selection and 6-TG challenge of gRNA modified CEM cells (cell viability)", "type": "cell-based", "details": "CEM, 10 μM 6-TG for 1 week, vs wild-type", "protocol": "(§4) Cells confirmed to be transfected with the gRNA via the use of the tracr RNA (24 hours post electroporation) were purified using fluorescence activated cells sorting (FACS) prior to culture in 10 μM 6-TG for 1 week replenished with fresh 6-TG every 48-72 hours.\n(§5) After 10 days in the presence of 10 uM 6-TG, replenished with fresh 6-TG every 48-72 hours, each cell line was challenged with increasing concentrations of 6-thioguanine (6-TG) and cell viability was compared to wild type (unmodified) CEM cells (see FIG. 40B)."}, "[4]": {"system": "Jurkat cells", "assay": "HPRT knockout Jurkat cells, resistance to 6-TG (luminescence, ATP detection)", "type": "cell-based", "details": "6-TG tested up to 10 uM, vs wild type", "protocol": "(§6) Jurkat cells were electroporated with a ribonucleoprotein (RNP) complex containing guide RNA (gRNA; GS-4; designated IDT-4) together with the Cas9 and tracrRNA. Cells which were confirmed to be transfected with the gRNA via tracr RNA were purified using fluorescence activated cells sorting (FACS) and subsequently cultured for 72 hours. Increasing concentrations of 6-thioguanine (6-TG) were then administered to the transduced cultured cells to assess resistance. Wild type (unmodified) Jurkat cells were used as a control.\nLuminescence (ATP detection) was used to assess cell viability."}, "[5]": {"system": "HPRT protein", "assay": "Western blot of HPRT protein in Jurkat cells", "type": "cell-based, human", "details": "vs unmodified (WT)", "protocol": "as §6\nUnmodified (WT) and IDT-4 modified Jurkat cells were also analyzed for HPRT protein using Western blot (see FIG. 25). […] Actin protein detection (bottom panel) was used as a protein loading control."}, "[6]": {"system": "Jurkat cells", "assay": "HPRT knockout Jurkat cells, MTX dose response", "type": "cell-based", "details": "MTX 0.00625 and 0.0125 μM, cultured for 5 days", "protocol": "Jurkat cells (unmodified; WT) were cultured with increasing concentrations of methotrexate (MTX) to determine the MTX dosage window required to kill WT cells (see FIG. 28). A dose range of between 0.00625 and 0.025 μM MTX was selected for subsequent assessment of HPRT Knockout (IDT-4 modified) Jurkat cells.\nDose response of HPRT Knockout (IDT-4 modified) Jurkat cells to MTX was compared to unmodified Jurkat cells (WT) to determine sensitivity to MTX (see FIG. 29)."}, "[7]": {"assay": "6-TG selection and 6-TG challenge of gRNA modified CEM cells (cell viability)", "type": "cell-based", "details": "human, wild type (unmodified) CEM T cell leukemia cells; wild type CEM, 6-TG at 40 uM", "protocol": "as §4, §5"}, "[8]": {"system": "primary human T cells", "assay": "6-TG resistance of gRNA modified primary human T cells (viability)", "type": "cell-based", "details": "donors #9 and #10, 1 uM 6-TG, day 8 and day 13, vs unmodified", "description": "FIG. 44 illustrates a method of modifying primary T-cells in accordance with one embodiment of the present disclosure. FIGS. 45A-45C illustrate 6-TG dose responses seven days following the modification of the primary T-cells in accordance with the modification methods described herein. In particular, FIGS. 45A and 45B illustrate the targeting of Exon 3 (guide RNA 13) and Exon 8 (guide RNA 21). The references “#9” and “#10” denote T-cell number and UT control (electroporated without RNP). FIG. 45C illustrates unmodified cells from donor #9 and donor #10 tested with increasing concentrations of 6-TG (day 4). It was observed that the […] primary T-cells were very sensitive to low doses of 6-TG. ICE Scores are shown below.\n(§7) Peripheral blood mononuclear cells (PBMC) were isolated from Australian Red Cross Blood donor samples (n=2) via density centrifugation. […] By day 7, the original mixed PBMC population was determined to be primarily CD3+ T cells (flow cytometry; data not shown).\nThe cells were then cultured for about 7 and about 12 days in the presence of 1 uM 6-TG, with 6-TG replenished every about 2 to about 3 days. At each of these time points, the cells were assessed for the proportion of viable cells compared to untreated (UT) controls."}, "[9]": {"system": "primary human T cells", "assay": "MTX dose response in 6-TG selected primary human T cells", "type": "cell-based", "details": "primary human T cells after 12 days 1 μM 6-TG, MTX dose range 2 days, thymidine 16 μM", "protocol": "Primary human T cells modified using guide RNAs targeting the HPRT1 gene and subsequently placed under selection pressure for 12 days with 1 μM 6-TG, with 6-TG replenished every 2 to 3 days, were subjected to a dose range of MTX in the presence of thymidine 16 μM for 2 days and assessed for cell viability."}, "[10]": {"system": "HPRT1 gene", "assay": "ICE scoring (indel, knockout score) of gRNA editing in primary T cells", "type": "cell-based", "details": "primary human T cells", "description": "as §2, §3\nFIG. 44 illustrates a method of modifying primary T-cells in accordance with one embodiment of the present disclosure. FIGS. 45A-45C illustrate 6-TG dose responses seven days following the modification of the primary T-cells in accordance with the modification methods described herein. In particular, FIGS. 45A and 45B illustrate the targeting of Exon 3 (guide RNA 13) and Exon 8 (guide RNA 21). The references “#9” and “#10” denote T-cell number and UT control (electroporated without RNP). […]\nas §7"}, "[11]": {"system": "CEM cells", "assay": "Negative selection with MTX or MPA, transduced or transfected CEM cells", "type": "cell-based", "details": "1 μM or 10 μM of MPA, day 0 to day 14", "protocol": "Transduced or transfected CEM cells (such as those from Example 1) were cultured with or without MTX from day 0 to day 14. The medium was refreshed every 3 to 4 days. GFP was analyzed on flow machine and InDel % was analyzed by T7E1 assay."}, "[12]": {"details": "after 10 days of 6-TG selection (10 uM)"}}, "note": "Entries after “also recorded” stand apart in the source; their conditions may differ.", "data": [{"compound": "gRNA 22: sgRNA guide and PAM GAAGTATTCATTATAGTCAAGGG, HPRT 1 target Exon 8 (listed as DNA, chemistry not given here)", "values": [{"measurement": "HPRT protein (Western blot)", "setting": "[1]; 72 hours post-electroporation, no 6-TG selection, listed as guide 22", "result": "undetectable levels of HPRT; also recorded: non-detectable"}, {"measurement": "HPRT protein (Western blot)", "setting": "[1]; [12]", "result": "remained undetectable"}]}, {"compound": "gRNA 18: sgRNA guide and PAM TTATGCTGAGGATTTGGAAAGGG, HPRT 1 target Exon 2 (listed as DNA, chemistry not given here)", "values": [{"measurement": "HPRT protein (Western blot)", "setting": "[1]; 72 hours post-electroporation, no 6-TG selection, listed as guide 18", "result": "reduced compared to wildtype; also recorded: detectable levels of HPRT protein"}, {"measurement": "HPRT protein (Western blot)", "setting": "[1]; [12]", "result": "limited to no detectable levels of HPRT"}, {"measurement": "editing (ICE scoring), in words", "setting": "[2]", "result": "efficient editing"}, {"measurement": "cell viability under 6-TG selection", "setting": "[3]", "result": "more variable viability"}]}, {"compound": "gRNA 15: sgRNA guide and PAM GATGTGATGAAGGAGATGGGAGG, HPRT 1 target Exon 3 (listed as DNA, chemistry not given here)", "values": [{"measurement": "HPRT protein (Western blot)", "setting": "[1]; [12]", "result": "limited to no detectable levels of HPRT"}, {"measurement": "editing (ICE scoring), in words", "setting": "[2]", "result": "efficient editing"}, {"measurement": "cell viability under 6-TG selection", "setting": "[3]", "result": "more variable viability"}]}, {"compound": "IDT-4: lead HPRT knockout guide RNA GGTTATGACCTTGATTTATT (listed as DNA, chemistry not given here)", "values": [{"measurement": "cell viability with increasing doses of 6-TG", "setting": "[4]", "result": "resistance to increasing doses of 6-TG"}, {"measurement": "HPRT protein level (Western blot)", "setting": "[5]", "result": "undetectable levels of HPRT"}, {"measurement": "sensitivity to MTX compared to wild type cells", "setting": "[6]", "result": "increased sensitivity to MTX"}]}, {"compound": "gRNA 17: sgRNA guide and PAM GTAGCCCTCTGTGTGCTCAAGGG, HPRT 1 target Exon 3 (listed as DNA, chemistry not given here)", "values": [{"measurement": "HPRT protein (Western blot)", "setting": "[1]; 72 hours post-electroporation, no 6-TG selection, listed as guide 17", "result": "undetectable levels of HPRT; also recorded: non-detectable"}, {"measurement": "HPRT protein (Western blot)", "setting": "[1]; [12]", "result": "remained undetectable"}]}, {"compound": "Nc1nc2nc[nH]c2c(=S)[nH]1", "note": "[6-TG, 6-thioguanine, reference compound]", "values": [{"measurement": "viability at 40 µM", "setting": "[7]", "result": "~10", "unit": "%"}]}, {"compound": "gRNA 13: sgRNA guide and PAM AGCCCCCCTTGAGCACACAGAGG, HPRT 1 target Exon 3 (listed as DNA, chemistry not given here)", "values": [{"measurement": "proportion of viable cells under 6-TG", "setting": "[8]", "result": "increased viability"}, {"measurement": "sensitivity to MTX compared to wild-type non-modified cells (UT)", "setting": "[9]", "result": "increased sensitivity to MTX"}, {"measurement": "HPRT protein (Western blot)", "setting": "[1]; 72 hours post-electroporation, no 6-TG selection, listed as guide 13", "result": "undetectable levels of HPRT; also recorded: non-detectable"}, {"measurement": "HPRT protein (Western blot)", "setting": "[1]; [12]", "result": "remained undetectable"}, {"measurement": "knockout efficiency (ICE scoring)", "setting": "[10]", "result": "about 43%"}]}, {"compound": "COc1c(C)c2c(c(O)c1C/C=C(\\C)CCC(=O)O)C(=O)OC2", "note": "[MPA, Mycophenolic acid]", "values": [{"measurement": "HPRT knockout population of CEM cells", "setting": "[11]", "result": "eliminated at a faster pace"}, {"measurement": "GFP population of transduced (HPRT knockdown) cells", "setting": "[11]; CEM cells", "result": "decreased"}]}, {"compound": "gRNA 19: sgRNA guide and PAM GTGCTTTGATGTAATCCAGCAGG, HPRT 1 target Exon 3 (listed as DNA, chemistry not given here)", "values": [{"measurement": "HPRT protein (Western blot)", "setting": "[1]; 72 hours post-electroporation, no 6-TG selection, listed as guide 19", "result": "reduced compared to wildtype; also recorded: detectable levels of HPRT protein"}, {"measurement": "HPRT protein (Western blot)", "setting": "[1]; [12]", "result": "limited to no detectable levels of HPRT"}, {"measurement": "editing (ICE scoring), in words", "setting": "[2]", "result": "zero editing"}, {"measurement": "cell viability under 6-TG selection", "setting": "[3]", "result": "more variable viability"}]}, {"compound": "gRNA 12: sgRNA guide and PAM GCCCCCCTTGAGCACACAGAGGG, HPRT 1 target Exon 4 (listed as DNA, chemistry not given here)", "values": [{"measurement": "HPRT protein (Western blot)", "setting": "[1]; 72 hours post-electroporation, no 6-TG selection, listed as guide 12", "result": "undetectable levels of HPRT; also recorded: non-detectable"}, {"measurement": "HPRT protein (Western blot)", "setting": "[1]; [12]", "result": "remained undetectable"}]}]}
